{"source": "patent US10736888B2", "about": "“Triple combination” (HELPERBY THERAPEUTICS LIMITED, priority 2015, dated 2020)", "key": {"S. aureus on pig skin": {"tested_on": "S. aureus on pig skin", "test": "antimicrobial activity against S. aureus on pig skin (swab, CFU counting, log kill)", "format": "cell-based, Staphylococcus aureus (Oxford)", "settings": "Example 3; 2 hours after application; inoculum 7.6 (7.62 = complete kill)", "description": "Staphylococcus aureus (Oxford); Gram positive; Reference strain.\nBacterial cultures were prepared by inoculation of 10 ml of nutrient broth with a single colony of bacteria on blood agar or TSA and incubated at 37° C. with continuous shaking at 100 rpm for 16 to 24 hours. The overnight cultures were used for experimental tests.\nFor CFU counting, the bacterial suspensions were diluted using sterile deionized water or phosphate-buffered saline (PBS, Sigma Aldrich Ltd, Poole, Dorset, UK). 100 μl of 10-fold serial dilutions of bacteria culture were plated on one third of TSA plates in triplicate and incubated 24 to 48 hours at 37° C. The number of cells presented on the plates was counted using an AcoLyte colony counter (Synbiosis) and results were expressed as Colony Forming Units/ml (CFU/ml).\nThe efficacy of each of the above formulations F017A, F017B and F019 was assessed against S. aureus on pig skin. The S. aureus culture was grown overnight according to methods known in the art. The overnight culture was then spread on pig skin: 40 μl of culture was used for 2 cm^3 of pig skin. Each of the formulations F017A, F017B and F019 was then applied to the pig skin.\nAfter 2 hours and 5 hours from application of each formulation, the pig skin was swabbed and bacteria on the swab were processed for CFU counting. The results for F017A, F017B and F019 against a control experiment (where no triple combination was applied to the pig skin) and against commercially available products Bactroban® cream (mupirocin) and Naseptin® (chlorhexidine and neomycin) are shown in FIG. 1.\nThe efficacy of each of the above formulations F017A, F017B and F019 was again assessed against S. aureus on pig skin. The S. aureus culture was grown overnight according to methods known in the art. The overnight culture was then spread on pig skin: 40 μl of culture was used for 2 cm^3 of pig skin. […]\nThe efficacy of each of the above formulations F017A, F022A, F022B, F022C, F022D, F022E, F022F, and F022G was assessed against S. aureus on pig skin. […]"}, "[1]": {"tested_on": "clinically latent microorganisms", "test": "screening for ability to kill clinically latent microorganisms (WO2000028074 method)", "format": "cell-based", "source_text": "International Patent Application, Publication Number WO2000028074 describes a method of screening compounds to determine their ability to kill clinically latent microorganisms. […] This observation has necessitated the development of novel antimicrobials which may be used to kill clinically latent microorganisms.\nBy way of example, WO2000028074 describes a suitable method of screening compounds to determine their ability to kill clinically latent microorganisms. A typical method may include the following steps: • (1) growing a bacterial culture to stationary phase; • (2) treating the stationary phase culture with one or more antimicrobial agents at a concentration and or time sufficient to kill growing bacteria, thereby selecting a phenotypically resistant sub-population; • (3) incubating a sample of the phenotypically resistant subpopulation with one or more test compounds or agents; and • (4) assessing any antimicrobial effects against the phenotypically resistant subpopulation."}}}
{"compound": "Cc1nc2ccc(Oc3ccccc3)cc2c2c1CCN2CCc1ccccc1", "note": "[HT61, 4-methyl-8-phenoxy-1-(2-phenylethyl)-2,3-dihydro-1H-pyrrolo[3,2-c]quinoline]", "values": [{"measurement": "Log Kill 2 h", "setting": "S. aureus on pig skin", "value": 1.87}]}
{"compound": "C/C(=C\\C(=O)OCCCCCCCCC(=O)O)C[C@@H]1OC[C@H](C[C@@H]2O[C@H]2[C@@H](C)[C@H](C)O)[C@@H](O)[C@H]1O", "note": "[mupirocin]", "values": [{"measurement": "activity against clinically latent microorganisms", "setting": "[1]", "value": "little or no activity"}, {"measurement": "Log Kill 2 h", "setting": "S. aureus on pig skin", "value": 0.49}]}
{"compound": "neomycin", "values": [{"measurement": "activity against clinically latent microorganisms", "setting": "[1]", "value": "little or no activity"}, {"measurement": "Log Kill 2 h", "setting": "S. aureus on pig skin", "value": 4.56}]}
